19 compounds from patent publication US9474755B2, “GLP-1 receptor modulators” (Receptos, Inc., priority 2014, dated 2016) can be followed below.

A word on the EC50: it is the concentration that produces a half-maximal response.

Molecules are shown by their SMILES. Where only a bound is given, the exact number is not on record here.

The target in the test is T1, GLP-1R (Homo sapiens, UniProt P43220).
T1 construct: host or cells: CRE-bla CHO-K1
T1 sequence (P43220 24-463): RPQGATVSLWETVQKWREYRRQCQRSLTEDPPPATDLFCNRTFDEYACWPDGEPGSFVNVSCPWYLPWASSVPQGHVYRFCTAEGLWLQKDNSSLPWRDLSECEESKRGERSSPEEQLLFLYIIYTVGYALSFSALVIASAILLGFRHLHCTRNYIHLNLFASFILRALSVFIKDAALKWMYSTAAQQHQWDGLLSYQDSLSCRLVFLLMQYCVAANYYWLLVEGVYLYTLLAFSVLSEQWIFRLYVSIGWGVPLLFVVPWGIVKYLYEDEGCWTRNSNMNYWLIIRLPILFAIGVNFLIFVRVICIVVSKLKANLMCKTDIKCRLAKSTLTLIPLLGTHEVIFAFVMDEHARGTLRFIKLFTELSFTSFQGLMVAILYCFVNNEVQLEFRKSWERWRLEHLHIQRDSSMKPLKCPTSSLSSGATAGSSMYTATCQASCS
T1 sequence (P01275 100-127 partner limits assumed): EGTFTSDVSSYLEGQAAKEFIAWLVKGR
Description: EC20 GLP-1(9-36) PAM cAMP Assay: dose response of compound in the presence of fixed concentration of GLP-1(9-36). The class given is cell-based. As to conditions: GLP-1R CRE-bla CHO-K1 cells, in presence of fixed concentration of GLP-1(9-36), 30 min at 37° C. How it is done: EC20 GLP-1(9-36) PAM cAMP Assay: Dose Response of Compound in the Presence of Fixed Concentration of GLP-1 (9-36).
GLP-1R CRE-bla CHO-K1 cells cultured in growth medium (DMEM-High glucose, 10% dialyzed FBS, 0.1 mM NEAA, 25 mM Hepes, 100 U/mL penicillin/100 μg/mL streptomycin, 5 μg/mL Blasticidin, 600 μg/mL Hygromycin) were trypsinized and plated in suspension into 384 well white flat bottom plates at 5000 cells/well in 12 μL assay buffer (Hanks Balanced Salt solution, 10 mM Hepes, 0.1% BSA, 10 pH 7.4). A 5× compound dose response curve (12-point) was generated in assay buffer containing 1.5 mM IBMX, 4% DMSO. GLP-1(9-36) was diluted to 4.2 μM in assay buffer containing 1.5 mM IBMX and 4% DMSO. The 5× compound dose response was added (3 μL), followed by 0.5 μL of GLP-1(9-36) and cells were incubated for 30 min at 37° C. Direct detection of cAMP was carried out using DiscoveRx HitHunter cAMP kit according to manufacturer's instructions and luminescence was read using a SpectraMax M5 plate reader. Luminescence was converted to total cAMP using a cAMP standard curve and data was analyzed by non-linear regression to determine the EC50 and Emax.
As for `CCCC1CCC(C2CC=C(c3cnc(-c4ccc(C[C@H](NC(=O)c5ccc(CC)cc5)C(=O)N5CC(C(=O)O)C5)cc4)nc3)CC2)CC1` (stereo partly shown) [Compound 21], the EC50 is below 500 nM.
The figure for `CCCc1ccc(C(=O)N[C@@H](Cc2ccc(-c3ncc(C4=CCC(C5CCC(CCC)CC5)CC4)cn3)cc2)C(=O)N2CC(C(=O)O)C2)cc1` (stereo partly shown) [Compound 22] is below 500 nM; for `CCCC1CCC(C2CC=C(c3cnc(-c4ccc(C[C@H](NC(=O)c5ccc(CC(C)C)cc5)C(=O)N5CC(C(=O)O)C5)cc4)nc3)CC2)CC1` (stereo partly shown) [Compound 23] it is below 500 nM; for `CCCC1CCC(C2CC=C(c3cnc(-c4ccc(C[C@H](NC(=O)c5ccc(C6CC6)cc5)C(=O)N5CC(C(=O)O)C5)cc4)nc3)CC2)CC1` (stereo partly shown) [Compound 24] it is below 500 nM.
For `CCCC1CCC(C2CCC(c3cnc(-c4ccc(C[C@H](NC(=O)c5ccc(C6(C)CC6)cc5)C(=O)N5CC(C(=O)O)C5)cc4)nc3)CC2)CC1` (stereo partly shown) [Compound 25], the EC50 lay within 2500 to 5000 nM.
With `CCCC1CCC(C2CC=C(c3cnc(-c4ccc(C[C@H](NC(=O)c5ccc(C6(C)CC6)cc5)C(=O)N5CC(C(=O)O)C5)cc4)nc3)CC2)CC1` (stereo partly shown) [Compound 26] the figure was below 500 nM; with `CCCC1CCC(C2CC=C(c3cnc(-c4ccc(C[C@H](NC(=O)c5ccc(OC(C)C)cc5)C(=O)N5CC(C(=O)O)C5)cc4)nc3)CC2)CC1` (stereo partly shown) [Compound 27], below 500 nM; with `CCCC1CCC(C2CCC(c3cnc(-c4ccc(C[C@H](NC(=O)c5ccc(C(C)(C)C)nc5)C(=O)N5CC(C(=O)O)C5)cc4)nc3)CC2)CC1` (stereo partly shown) [Compound 28], 5000 to 10000 nM.
With `CCCC1CCC(C2CC=C(c3cnc(-c4ccc(C[C@H](NC(=O)c5ccc(C(C)(C)C)nc5)C(=O)N5CC(C(=O)O)C5)cc4)nc3)CC2)CC1` (stereo partly shown) [Compound 29], the 50% effective concentration (EC50) fell in the range of 500 to 2500 nM.
With `CCCC1CCC(C2CC=C(c3cnc(-c4ccc(C[C@H](NC(=O)c5ccc(C(C)=O)cc5)C(=O)N5CC(C(=O)O)C5)cc4)nc3)CC2)CC1` (stereo partly shown) [Compound 30] the figure was 500 to 2500 nM.
The figure for `CCCC1CCC(C2CC=C(c3cnc(-c4ccc(C[C@H](NC(=O)c5ccc(CC)s5)C(=O)N5CC(C(=O)O)C5)cc4)nc3)CC2)CC1` (stereo partly drawn) [Compound 31, 1-((S)-2-(5-ethylthiophene-2-carboxamido)-3-(4-(5-((1RS,1′s,4′RS)-4′-propyl-[1,1′-bi(cyclohexan)]-3-en-4-yl)pyrimidin-2-yl)phenyl)propanoyl)azetidine-3-carboxylic acid] is below 500 nM.
Turning to `CCCC1CCC(C2CC=C(c3cnc(-c4ccc(C[C@H](NC(=O)c5ccc(CC(C)C)s5)C(=O)N5CC(C(=O)O)C5)cc4)nc3)CC2)CC1` (stereo partly shown) [Compound 32], the 50% effective concentration (EC50) is below 500 nM.
With `CCCC1CCC(C2CC=C(c3cnc(-c4ccc(C[C@H](NC(=O)c5cc6cc(OC)ccc6[nH]5)C(=O)N5CC(C(=O)O)C5)cc4)nc3)CC2)CC1` (stereo partly shown) [Compound 33] the figure was 500 to 2500 nM.
The figure for `CCCC1CCC(C2CC=C(c3cnc(-c4ccc(C[C@H](NC(=O)c5ccc(C6CC6)s5)C(=O)N5CC(C(=O)O)C5)cc4)nc3)CC2)CC1` (stereo partly shown) [Compound 34] is below 500 nM; for `CCCC1CCC(C2CC=C(c3cnc(-c4ccc(C[C@H](NC(=O)c5ccc(C(C)(C)C(F)(F)F)cc5)C(=O)N5CC(C(=O)O)C5)cc4)nc3)CC2)CC1` (stereo partly shown) [Compound 35] it is 500 to 2500 nM.
The figure for `CC(C)(C)c1ccc(C(=O)N[C@@H](Cc2ccc(-c3ncc(C4=CCC(C(C)(C)C)CC4)cn3)cc2)C(=O)N2CC(C(=O)O)C2)s1` (stereo partly shown) [Compound 36] is below 500 nM; for `CC(C)(C)c1ccc(C(=O)N[C@@H](Cc2ccc(-c3ncc(C4=CCC(C(F)(F)F)CC4)cn3)cc2)C(=O)N2CC(C(=O)O)C2)s1` (stereo partly shown) [Compound 37] it is 500 to 2500 nM; for `CCCCCC1CC=C(c2cnc(-c3ccc(C[C@H](NC(=O)c4ccc(C(C)(C)C)s4)C(=O)N4CC(C(=O)O)C4)cc3)nc2)CC1` (stereo partly shown) [Compound 38] it is 500 to 2500 nM.
For `CCCC1CC=C(c2cnc(-c3ccc(C[C@H](NC(=O)c4ccc(C(C)(C)C)s4)C(=O)N4CC(C(=O)O)C4)cc3)nc2)CC1` (stereo partly shown) [Compound 39], the EC50 was in the range of 500 to 2500 nM.
